Broadly, the IC50 is the midpoint of a concentration-inhibition curve.

Our source for the IC50 values is BindingDB's records for doi:10.1016/j.ejmech.2019.111726 (Jinan University, 2019).

Structures are written as SMILES.

Data set [1] is described as follows: Reversal of P-gp mediated multidrug resistance in human HepG2/DOX cells assessed as doxorubicin IC50 at 5 uM measured within 48 hrs by MTT assay (Rvb = 69.3 +/- 3.9 uM).
Data set [2] is described as follows: Reversal of P-gp mediated multidrug resistance in human MCF7/ADM cells assessed as doxorubicin IC50 at 10 uM measured within 48 hrs by MTT assay (Rvb = 151.7 +/- 5 uM).
The nature of data set [3]: Reversal of P-gp mediated multidrug resistance in human HepG2/DOX cells assessed as doxorubicin IC50 at 10 uM measured within 48 hrs by MTT assay (Rvb = 69.3 +/- 3.9 uM). For orientation: Tetrazolium assays rely on reduction of a dye to a coloured formazan, in cell work by metabolically active cells.
Data set [4] can be described thus: Reversal of P-gp mediated multidrug resistance in human MCF7/ADM cells assessed as doxorubicin IC50 at 5 uM measured within 48 hrs by MTT assay (Rvb = 151.7 +/- 5 uM).

With `CCCN(C(=O)CCCCCCC(=O)N(CCC)[C@H]1CC2=CC(=O)O[C@]23C[C@H]1N1CCCC[C@H]13)[C@H]1CC2=CC(=O)O[C@]23C[C@H]1N1CCCC[C@H]13`, the IC50 is 1.4 µM in data set [1], 1.2 µM in data set [2], 0.3 µM in data set [3] and 14.6 µM in data set [4].
